The target in assay [1] is T1, SOS1 (Homo sapiens, UniProt Q07889).
T1 construct: HIS-SOS1cat (160 nM; Cytoskeleton, US); His (N); purchased Cytoskeleton
T1 sequence (Q07889 564-1049 limits assumed): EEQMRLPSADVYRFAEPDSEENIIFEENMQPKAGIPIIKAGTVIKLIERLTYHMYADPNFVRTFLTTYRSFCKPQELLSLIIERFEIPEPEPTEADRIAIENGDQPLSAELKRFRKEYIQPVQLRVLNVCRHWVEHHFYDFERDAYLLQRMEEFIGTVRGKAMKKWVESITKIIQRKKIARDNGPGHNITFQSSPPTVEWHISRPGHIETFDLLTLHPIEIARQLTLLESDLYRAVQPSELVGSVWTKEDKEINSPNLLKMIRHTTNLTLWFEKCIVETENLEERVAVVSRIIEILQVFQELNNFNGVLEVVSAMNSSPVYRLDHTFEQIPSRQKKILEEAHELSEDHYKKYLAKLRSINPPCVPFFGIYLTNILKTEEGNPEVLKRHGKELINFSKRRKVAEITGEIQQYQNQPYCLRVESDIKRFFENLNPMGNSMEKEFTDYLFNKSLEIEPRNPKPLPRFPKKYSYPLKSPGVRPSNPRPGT
Put plainly: SOS-catalyzed nucleotide exchange assay (HTRF, SOS1-mediated GTP loading of KRAS G12D). The class given is biochemical. The method, then:
SOS1 activity was measured by SOS1-mediated GTP loading quantification of KRAS^G12D. GTP loaded KRAS^G12D was detected by HTRF (Homogeneous Time Resolved Fluorescence) using anti-GST terbium (Cisbio, France) as a donor and a fluorescence GTP analogue (EDA-GTP-DY-647P1, [DY-647P1 labeled 2'/3'-O-(2-aminoethyl-carbamoyl)guanosine-5'-triphosphate (Jena bioscience, Germany)]) as an acceptor.
KRAS^G12D working solution was prepared by adding equal amounts of GST-KRAS^G12D (100 nM) and anti-GST-terbium (2 nM; Cisbio, France) to the assay buffer and culturing on ice for 10 minutes. […] Control solution was prepared by adding equal volumes of EDA-GTP-DY-647P1 and the assay buffer for normalization control to exclude GEF-independent GTP loading and background signals.
10 uL of the KRAS^G12D solution was added to each well and incubated for 30 minutes at room temperature while shaking. HTRF was measured using a Thermo Varioskan (excitation 334 nm, emission 665 nm). The IC50 of each inhibitor was analyzed using Graphad Prism.

Assay [2] concerns the target T2, KRAS G12C::SOS1 (Homo sapiens, UniProt Q07889).
T2 construct: purchased CISBIO 64KRASG12PEH
T2 sequence (Q07889 1-1333): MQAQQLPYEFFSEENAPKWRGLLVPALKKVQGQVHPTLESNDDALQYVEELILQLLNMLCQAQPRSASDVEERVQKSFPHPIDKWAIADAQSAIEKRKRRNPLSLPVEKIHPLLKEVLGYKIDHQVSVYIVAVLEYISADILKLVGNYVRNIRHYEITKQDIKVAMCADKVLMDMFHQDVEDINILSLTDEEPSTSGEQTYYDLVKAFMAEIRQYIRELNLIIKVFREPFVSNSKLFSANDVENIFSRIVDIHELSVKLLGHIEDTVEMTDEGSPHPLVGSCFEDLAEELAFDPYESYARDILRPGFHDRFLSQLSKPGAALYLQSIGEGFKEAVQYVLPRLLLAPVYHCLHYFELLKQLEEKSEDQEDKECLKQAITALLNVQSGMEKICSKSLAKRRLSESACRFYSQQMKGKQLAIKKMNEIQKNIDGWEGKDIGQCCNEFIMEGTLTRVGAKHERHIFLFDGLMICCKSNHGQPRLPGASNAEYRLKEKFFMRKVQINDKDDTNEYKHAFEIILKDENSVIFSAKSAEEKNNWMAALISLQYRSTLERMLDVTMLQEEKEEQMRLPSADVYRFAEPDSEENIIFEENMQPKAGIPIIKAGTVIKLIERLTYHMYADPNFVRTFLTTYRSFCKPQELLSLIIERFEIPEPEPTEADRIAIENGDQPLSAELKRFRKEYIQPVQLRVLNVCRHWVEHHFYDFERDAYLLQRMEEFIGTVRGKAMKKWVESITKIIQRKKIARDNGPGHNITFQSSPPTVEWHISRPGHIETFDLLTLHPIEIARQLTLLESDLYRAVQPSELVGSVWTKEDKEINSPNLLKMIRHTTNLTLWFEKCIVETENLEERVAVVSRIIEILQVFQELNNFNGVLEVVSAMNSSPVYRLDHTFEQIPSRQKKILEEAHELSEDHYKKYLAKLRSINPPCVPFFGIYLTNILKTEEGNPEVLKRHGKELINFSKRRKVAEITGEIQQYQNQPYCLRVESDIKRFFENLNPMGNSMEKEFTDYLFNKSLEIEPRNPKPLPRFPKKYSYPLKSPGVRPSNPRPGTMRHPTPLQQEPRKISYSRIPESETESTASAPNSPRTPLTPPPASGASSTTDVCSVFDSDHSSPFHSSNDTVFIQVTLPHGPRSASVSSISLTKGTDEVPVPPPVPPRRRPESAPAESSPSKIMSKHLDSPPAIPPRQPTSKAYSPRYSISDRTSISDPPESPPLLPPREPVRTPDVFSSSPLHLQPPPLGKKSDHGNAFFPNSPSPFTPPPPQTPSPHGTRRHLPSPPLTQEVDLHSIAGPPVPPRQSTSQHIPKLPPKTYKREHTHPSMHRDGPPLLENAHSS
Kind of assay: KRAS G12C::SOS1 protein-protein interaction (PPI) inhibition assay (HTRF). The class given is binding. The method, then: Protein-protein interaction between SOS1 and KRAS^G12c was detected using KRAS G12C/SOS1 binding kit from CISBIO (64KRASG12PEH, CISBIO, FRANCE) according to the manufacturer's assay method. Briefly, the maximum concentration of an inhibitor sample was set to be 3 µM, and the inhibitor sample was diluted 7 times by 1/3, and samples having a total of 8 concentrations were prepared. In HTRF (Homogeneous Time-Resolved Fluorescence) exclusive 96-well low-volume white plate (66PL96005, CISBIO, FRANCE), 2 µL of an inhibitor sample prepared for each concentration, 5 µL of a mixed solution of Tag1 labeled KRAS^G12c protein and GTP diluted with the dilution solution provided by the manufacturer, and 5 µL of Tag2 labeled SOS1 protein were mixed, and added with 8 µL of a diluted solution where anti-Tag1 KRAS^G12C XL665 (HTRF acceptor) labeled antibody and anti-Tag2 SOS1 Terbium cryptate (HTRF donor) labeled antibody were mixed in an equal ratio and cultured at room temperature for 2 h.

[3] abbreviates: GST-KRAS G12D, HIS-SOS1cat, compound 128 pM to 10 µM, read-out: SOS-catalyzed nucleotide exchange assay.
Setting [4] is: 8 concentrations from 3 µM, three replicates, read-out: KRAS G12C::SOS1 PPI.

Like-named read-outs stand apart in the source and are kept apart here.

With `C[C@H](O)c1cc(C(=O)N[C@H](C)c2cccc(C(F)(F)F)c2F)nn(-c2cncc(-c3cnnn3C)c2)c1=O` (single isomer, unassigned) [Example 10], the IC50 in assay [1] (setting [3]) and in assay [2] (setting [4]) was 50 to 150 nM each time.

With `C[C@@H](NC(=O)c1ccc(=O)n(-c2cncc(-c3cnnn3[C@H]3CC3(F)F)c2)n1)c1cccc(C(F)(F)CO)c1F` (single isomer, unassigned) [Example 25], the IC50 in assay [1] and in assay [2] was less than 50 nM in each case.

Take `C[C@@H](NC(=O)c1ccc(=O)n(-c2cncc(-c3cnnn3[C@@H]3CC3(F)F)c2)n1)c1cccc(C(F)(F)CO)c1F` (single isomer, unassigned) [Example 26]: the IC50 in assay [1] and in assay [2] was less than 50 nM throughout.

Regarding `C[C@@H](NC(=O)c1ccc(=O)n(-c2cncc(-c3cnnn3C)c2)n1)c1cccc(C(F)(F)CO)c1Cl` [Example 1-3, N-[(1R)-1-[2-chloro-3-(1,1-difluoro-2-hydroxy-ethyl)phenyl]ethyl]-1-[5-(3-methyltriazol-4-yl)-3-pyridyl]-6-oxo-pyridazine-3-carboxamide], the IC50 in assay [1] (setting [3]) and in assay [2] (setting [4]) was 50 to 150 nM each time.

With `C[C@@H](NC(=O)c1ccc(=O)n(-c2cncc(-c3cnnn3C)c2)n1)c1cccc(C(F)(F)CF)c1F` [Example 1-8, (R)-N-(1-(2-fluoro-3-(1,1,2-trifluoroethyl)phenyl)ethyl)-1-(5-(1-methyl-1H-1,2,3-triazol-5-yl)pyridin-3-yl)-6-oxo-1,6-dihydropyridazine-3-carboxamide], the values for the IC50 in assay [1] (setting [3]) and in assay [2] (setting [4]) were less than 50 nM and 50 to 150 nM, respectively.

Regarding `COCC(F)(F)c1cccc([C@@H](C)NC(=O)c2ccc(=O)n(-c3cncc(-c4cnnn4C)c3)n2)c1F` [Example 1-10, (R)-N-(1-(3-(1,1-difluoro-2-methoxyethyl)-2-fluorophenyl)ethyl)-1-(5-(1-methyl-1H-1,2,3-triazol-5-yl)pyridin-3-yl)-6-oxo-1,6-dihydropyridazine-3-carboxamide], the IC50 in assay [1] (setting [3]) is less than 50 nM; in assay [2] (setting [4]) it was 50 to 150 nM.

Take `CCn1nncc1-c1cncc(-n2nc(C(=O)N[C@H](C)c3cccc(C(F)(F)CO)c3F)cc(C)c2=O)c1` [Example 1-13, N-[(1R)-1-[3-(1,1-difluoro-2-hydroxy-ethyl)-2-fluoro-phenyl]ethyl]-1-[5-(3-ethyltriazol-4-yl)-3-pyridyl]-5-methyl-6-oxo-pyridazine-3-carboxamide]: the IC50 in assay [1] (setting [3]) and in assay [2] (setting [4]) was less than 50 nM each time.

In the case of `CCn1nccc1-c1cncc(-n2nc(C(=O)N[C@H](C)c3cccc(C(F)(F)CO)c3F)ccc2=O)c1` [Example 1-14, N-[(1R)-1-[3-(1,1-difluoro-2-hydroxy-ethyl)-2-fluoro-phenyl]ethyl]-1-[5-(2-ethylpyrazol-3-yl)-3-pyridyl]-6-oxo-pyridazine-3-carboxamide], the IC50 in assay [1] (setting [3]) and in assay [2] (setting [4]) was greater than 150 nM throughout.

As for `CCn1nncc1-c1cncc(-n2nc(C(=O)N[C@H](C)c3cccc(C(F)(F)CO)c3F)ccc2=O)c1` [Example 1-18, N-[(1R)-1-[3-(1,1-difluoro-2-hydroxy-ethyl)-2-fluoro-phenyl]ethyl]-1-[5-(3-ethyltriazol-4-yl)-3-pyridyl]-6-oxo-pyridazine-3-carboxamide], the IC50 in assay [1] (setting [3]) and in assay [2] (setting [4]) was less than 50 nM each time.

As for `C[C@@H](NC(=O)c1ccc(=O)n(-c2cnnc(-c3ccnn3C)c2)n1)c1cccc(C(F)(F)F)c1F` [Example 1-19, N-[(1R)-1-[2-fluoro-3-(trifluoromethyl)phenyl]ethyl]-1-[6-(2-methylpyrazol-3-yl)pyridazin-4-yl]-6-oxo-pyridazine-3-carboxamide], the IC50 in assay [1] (setting [3]) and in assay [2] (setting [4]) was greater than 150 nM each time.

Regarding `Cc1cc(C(=O)N[C@H](C)c2cccc(C(F)(F)F)c2F)cn(-c2cncc(-c3cnnn3C)c2)c1=O` [Example 1-21, (R)-N-(1-(2-fluoro-3-(trifluoromethyl)phenyl)ethyl)-3-methyl-5'-(1-methyl-1H-1,2,3-triazol-5-yl)-2-oxo-2H-[1,3'-bipyridine]-5-carboxamide], the IC50 in assay [1] (setting [3]) and in assay [2] (setting [4]) was less than 50 nM throughout.

In the case of `CCn1nncc1-c1cc(-n2nc(C(=O)N[C@H](C)c3cccc(C(F)(F)F)c3F)ccc2=O)cnc1C` [Example 1-27, 1-[5-(3-ethyltriazol-4-yl)-6-methyl-3-pyridyl]-N-[(1R)-1-[2-fluoro-3-(trifluoromethyl)phenyl]ethyl]-6-oxo-pyridazine-3-carboxamide], the IC50 in assay [1] (setting [3]) and in assay [2] (setting [4]) was 50 to 150 nM each time.

Regarding `C[C@@H](NC(=O)c1cc(F)c(=O)n(-c2cncc(-c3cnnn3C)c2)c1)c1cccc(C(F)(F)F)c1F` [Example 1-30, (R)-3-fluoro-N-(1-(2-fluoro-3-(trifluoromethyl)phenyl)ethyl)-5'-(1-methyl-1H-1,2,3-triazol-5-yl)-2-oxo-2H-[1,3'-bipyridine]-5-carboxamide], the IC50 in assay [1] (setting [3]) and in assay [2] (setting [4]) was greater than 150 nM throughout.

With `[2H][C@](C)(NC(=O)c1ccc(=O)n(-c2cncc(-c3cnnn3C)c2)n1)c1cccc(C(F)(F)F)c1F` [Example 1-34, N-[(1R)-1-deuterio-1-[2-fluoro-3-(trifluoromethyl)phenyl]ethyl]-1-[5-(3-methyltriazol-4-yl)-3-pyridyl]-6-oxo-pyridazine-3-carboxamide], the IC50 is 50 to 150 nM in assay [1] (setting [3]) and less than 50 nM in assay [2] (setting [4]).

Consider `[2H]C([2H])([2H])[C@@H](NC(=O)c1ccc(=O)n(-c2cncc(-c3cnnn3C)c2)n1)c1cccc(C(F)(F)F)c1F` [Example 1-35, N-{(R)-1-[2-fluoro-3-(trifluoromethyl)phenyl]-ethyl-(2,2,2-trideuterio)}-1-[5-(1-methyl-1H-1,2,3-triazol-5-yl)-3-pyridyl]-6-oxo-pyridazine-3-carboxamide], for which the IC50 in assay [1] (setting [3]) and in assay [2] (setting [4]) was 50 to 150 nM throughout.
